From ChEMBL document CHEMBL1128477, “5,7-dihydro-3-[2-[1-(phenylmethyl)-4-piperidinyl]ethyl]-6H- pyrrolo[3,2-f]-1,2-benzisoxazol-6-one: a potent and centrally-selective inhibitor of acetylcholinesterase with an improved margin of safety” (J Med Chem, 1995)

Experiments:
Cholinesterase = Cholinesterase (Homo sapiens, UniProt P06276)
Description: In vitro inhibition of Butyrylcholinesterase from human erythrocytes

Acetylcholinesterase = Acetylcholinesterase (Homo sapiens, UniProt P22303)
Description: In vitro inhibition of Acetylcholinesterase from human erythrocytes

Rattus norvegicus [1] = organism: Rattus norvegicus; test: animal or person; conditions: 3 h
[2] = Safety index is the ratio of acute lethality LD50 to extracellular AchE ED50.; format: toxicity; conditions: read-out: Safety index
Rattus norvegicus [3] = organism: Rattus norvegicus; test: animal or person
Description: ED50 for salivation was defined as the dose required to produce a level 2 rating on a 0-4 point scale after treatment.

Acetylcholinesterase, sequence (P22303 whole entry): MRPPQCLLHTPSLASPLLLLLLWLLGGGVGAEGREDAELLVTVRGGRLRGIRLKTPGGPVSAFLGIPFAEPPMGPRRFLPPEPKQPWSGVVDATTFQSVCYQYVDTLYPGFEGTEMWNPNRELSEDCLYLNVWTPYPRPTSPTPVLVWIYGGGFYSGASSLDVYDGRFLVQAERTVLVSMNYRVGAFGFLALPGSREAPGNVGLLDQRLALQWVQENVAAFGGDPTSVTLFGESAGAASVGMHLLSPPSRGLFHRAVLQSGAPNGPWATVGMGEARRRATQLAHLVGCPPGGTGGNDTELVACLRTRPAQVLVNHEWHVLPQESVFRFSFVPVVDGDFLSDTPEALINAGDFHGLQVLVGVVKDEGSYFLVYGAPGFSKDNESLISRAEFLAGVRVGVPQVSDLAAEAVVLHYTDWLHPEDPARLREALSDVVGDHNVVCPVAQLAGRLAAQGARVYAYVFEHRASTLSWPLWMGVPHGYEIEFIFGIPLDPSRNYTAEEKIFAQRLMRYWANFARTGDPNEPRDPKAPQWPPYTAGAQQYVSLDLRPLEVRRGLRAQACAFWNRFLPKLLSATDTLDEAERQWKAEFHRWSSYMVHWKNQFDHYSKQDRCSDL
Cholinesterase, sequence (P06276 whole entry): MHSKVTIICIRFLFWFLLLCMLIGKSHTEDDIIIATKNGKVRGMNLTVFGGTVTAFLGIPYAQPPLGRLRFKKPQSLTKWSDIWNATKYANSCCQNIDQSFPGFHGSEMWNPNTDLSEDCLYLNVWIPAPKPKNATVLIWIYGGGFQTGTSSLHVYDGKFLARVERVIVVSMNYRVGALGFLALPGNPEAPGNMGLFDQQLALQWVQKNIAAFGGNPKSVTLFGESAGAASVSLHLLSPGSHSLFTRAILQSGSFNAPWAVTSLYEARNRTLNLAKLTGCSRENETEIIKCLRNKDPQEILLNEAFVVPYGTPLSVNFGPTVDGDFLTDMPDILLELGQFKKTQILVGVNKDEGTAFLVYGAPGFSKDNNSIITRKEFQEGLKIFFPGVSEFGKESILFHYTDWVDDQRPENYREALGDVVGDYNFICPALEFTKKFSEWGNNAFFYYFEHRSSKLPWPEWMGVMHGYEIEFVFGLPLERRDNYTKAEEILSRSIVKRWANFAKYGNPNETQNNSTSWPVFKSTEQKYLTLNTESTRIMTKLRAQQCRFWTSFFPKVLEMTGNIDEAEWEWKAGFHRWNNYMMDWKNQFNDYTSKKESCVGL
Description for in vivo: LD50 for actute lethality is defined as the dose that resulted in the death of 50% of the animals 1 hr after treatment.

Compound	IC50 (Cholinesterase)	IC50 (Acetylcholinesterase)	ED50 (Rattus norvegicus [1])	LD50 at 1 h (in vivo)	selectivity ratio [2]	ED50 (Rattus norvegicus [3])
CC(=O)Nc1ccc2c(CCC3CCN(Cc4ccccc4)CC3)noc2c1	9000 nM	–	–	–	–	–
O=C1Cc2c(ccc3c(CCC4CCN(Cc5ccccc5)CC4)noc23)N1	2200 nM	3.6 nM	–	–	–	–
O=C1Cc2cc3onc(CCC4CCN(Cc5ccccc5)CC4)c3cc2N1	3900 nM	0.95 nM	–	–	–	–
O=C(O)/C=C\C(=O)O.O=C1Cc2cc3c(CCC4CCN(Cc5ccccc5)CC4)noc3cc2N1 [ICOPEZIL MALEATE]	7200 nM	0.33 nM	0.4 mg/kg	42 mg/kg	105	26 mg/kg
O=C1CCc2cc3c(CCC4CCN(Cc5ccccc5)CC4)noc3cc2N1	4000 nM	0.57 nM	–	–	–	–
CN1C(=O)Cc2cc3c(CCC4CCN(Cc5ccccc5)CC4)noc3cc21	4500 nM	0.48 nM	–	–	–	–
